33 compounds from patent publication US9868719B2, “Compounds with pesticidal activity” (BAYER CROPSCIENCE AKTIENGESELLSCHAFT, priority 2013, dated 2018) can be followed below.

A short description of one data set: logP. The following applies: for chromatographic logP: HCOOH (formic acid).
The next data set has as its system Haemonchus contortus. Nature of the data set: Haemonchus contortus-Test (HAEMCO), larval mortality. The following applies: 120 h, read-out: activity (larval mortality). The method, then:
Haemonchus contortus-Test (HAEMCO)
(§1) Solvent: dimethyl sulfoxide
(§2) To produce a suitable preparation of active compound, 10 mg of active compound are dissolved in 0.5 ml solvent, and the concentrate is diluted with “Ringer's solution” to the desired concentration.
Approximately 40 larvae of the red stomach worm (Haemonchus contortus) are transferred into a test tube containing compound solution.
After 5 days percentage of larval mortality are recorded, 100% efficacy means all larvae are killed, 0% efficacy means no larvae are killed.

The next data set concerns Cooperia curticei. Nature of the data set: microbe, parasite or virus in culture. To be noted: 120 h, read-out: activity (larval mortality). The method, then: Cooperia curticei-Test (COOPCU)
as §1, §2
Approximately 40 nematode larvae (Cooperia curticei) are transferred into a test tube containing the compound solution.
After 5 days percentage of larval mortality is recorded, 100% efficacy means all larvae are killed; 0% efficacy means no larvae are killed.

Data set [1] relates to Nippostrongylus brasiliensis. As to the kind of experiment: Nippostrongylus brasiliensis-Test (NIPOBR), in vitro efficacy, acetylcholine esterase readout. To be noted: 10 μg/ml, read-out: activity (reduction of AChe compared to negative control). The method, then:
Nippostrongylus brasiliensis-Test (NIPOBR) (In Vitro Efficacy Test)
Adult Nippostrongylus brasiliensis were washed with saline buffer containing 100 U/ml penicillin, 0.1 mg/ml streptomycin and 2.5 μg/ml amphotericin B. Test compounds were dissolved in DMSO, and worms were incubated in medium in a final concentration of 10 μg/ml. An aliquot of the medium was used to determine the acetylcholine esterase activity in comparison to a negative control. The principle of measuring acetylcholine esterase as readout for anthelmintic activity was described in Rapson et al (1986) and Rapson et al (1987).

The test system of the next data set is Meloidogyne incognita. Nature of the data set: Meloidogyne incognita-Test, gall formation on salad seedlings. In kind it is in vivo. To be noted: 336 h, read-out: nematicidal activity (on the basis of gall formation). The method, then:
Meloidogyne incognita-Test
Solvent: 125.0 parts by weight of acetone
To produce a suitable preparation of active compound, 1 part by weight of active compound is mixed with the stated amount of solvent, and the concentrate is diluted with water to the desired concentration.
Vessels are filled with sand, a solution of the active ingredient, a suspension containing eggs and larvae of the southern root-knot nematode (Meloidogyne incognita) and salad seeds. The salad seeds germinate and the seedlings grow. Galls develop in the roots.
After 14 days the nematicidal activity is determined on the basis of the percentage of gall formation. 100% means no galls were found and 0% means the number of galls found on the roots of the treated plants was equal to that in untreated control plants.

Read-outs that look alike come from different tables or passages of the source.

For orientation: chromatographic logP means a lipophilicity value derived from retention on a column. Low values mean lower lipophilicity, high ones higher lipophilicity. As a reminder, the mortality is the percentage killed. Compound `O=C(NCCc1ncc(-n2ccnc2)cc1Cl)c1ccccc1C(F)(F)F` [Example 1] yielded a chromatographic logP in the data set “logP” of 1.21. The mortality at 20 ppm was determined as 80% in the data set with Haemonchus contortus (20 ppm, after 5 days) and 100% in the data set on Cooperia curticei (20 ppm, after 5 days).

`O=C(NCCc1ncc(-n2cc(C(F)(F)F)cn2)cc1Cl)c1ccccc1C(F)(F)F` [Example 2] came in with a chromatographic logP in “physchem” of 3.65. In addition, in data set [1], the inhibition at 10 µg/mL is not below 60%. Moreover, the mortality at 20 ppm with Haemonchus contortus and in the data set on Cooperia curticei was 100% throughout. The pest or weed control at 20 ppm in the data set on Meloidogyne incognita came to 1%.

Consider `O=C(NCCc1ncc(-n2ccc(C(F)(F)F)n2)cc1Cl)c1ccccc1C(F)(F)F` [Example 3], for which the chromatographic logP in “physchem” was found to be 3.68. In addition, the inhibition at 10 µg/mL in data set [1] is not below 60%. Further, the mortality at 20 ppm in the data set with Haemonchus contortus and with Cooperia curticei was 100% throughout. In addition, the pest or weed control at 20 ppm in the data set on Meloidogyne incognita turned out to be 1%.

`O=C(NCCc1ncc(-n2cncn2)cc1Cl)c1ccccc1C(F)(F)F` [Example 5]: in “logP”, the chromatographic logP was 2.06. Further, the mortality at 20 ppm with Haemonchus contortus worked out at 90%. Also, the pest or weed control at 20 ppm with Meloidogyne incognita (20 ppm, after 14 days) was 1%.

Take `O=C(NCCc1ncc(-c2ccc(Cl)nc2)cc1Cl)c1ccccc1C(F)(F)F` [Example 6]: the chromatographic logP in “logP” amounted to 3. Also, the mortality at 20 ppm in the data set on Haemonchus contortus and in the data set with Cooperia curticei was 100% in each case. Moreover, in the data set with Meloidogyne incognita (20 ppm, after 14 days), the pest or weed control at 20 ppm was found to be 1%.

`O=C(NCCc1ncc(-c2ccc(C(F)(F)F)nc2)cc1Cl)c1ccccc1C(F)(F)F` [Example 7, N-{2-[5-chloro-6′-(trifluoromethyl)-3,3′-bipyridin-6-yl]ethyl}-2-(trifluoromethyl) benzamide]: in the data set “logP”, the chromatographic logP was 3.29. Besides, the mortality at 20 ppm came to 90% with Haemonchus contortus and 100% in the data set with Cooperia curticei. Also, the pest or weed control at 20 ppm in the data set with Meloidogyne incognita (20 ppm, after 14 days) was 90%.

As to `O=C(NCC(F)(F)c1ncc(-c2ccoc2)cc1Cl)c1ccccc1C(F)(F)F` [Example 8], the mortality at 20 ppm in the data set with Cooperia curticei amounted to 100%.

For the compound `Cc1occc1-c1cnc(C(F)(F)CNC(=O)c2ccccc2C(F)(F)F)c(Cl)c1` [Example 9], the values for the mortality at 20 ppm with Haemonchus contortus and in the data set with Cooperia curticei were 90% and 100%, respectively.

Take `O=C(NCC(F)(F)c1ncc(-c2ccc(C(F)(F)F)nc2)cc1Cl)c1ccccc1C(F)(F)F` [Example 11, N-{2-[5-chloro-6′-(trifluoromethyl)-3,3′-bipyridin-6-yl]-2,2-difluoroethyl}-2-(trifluoromethyl) benzamide]: in the data set “logP”, the chromatographic logP came out at 3.42. The mortality at 20 ppm in the data set on Haemonchus contortus worked out at 90%; with Cooperia curticei, 100%.

`O=C(NCC(F)(F)c1ncc(-c2ccc(Cl)nc2)cc1Cl)c1ccccc1C(F)(F)F` [Example 12] displayed a chromatographic logP in “logP” of 3.21. Moreover, the mortality at 20 ppm in the data set with Haemonchus contortus was 90%; in the data set on Cooperia curticei, 100%. Moreover, the pest or weed control at 20 ppm in the data set with Meloidogyne incognita (20 ppm, after 14 days) turned out to be 90%.

The compound `Cc1ncccc1-c1cnc(C(F)(F)CNC(=O)c2ccccc2C(F)(F)F)c(Cl)c1` [Example 13] gave a chromatographic logP in the data set “logP” of 1.86. Further, the pest or weed control at 20 ppm in the data set with Meloidogyne incognita (20 ppm, after 14 days) worked out at 90%. In addition, the mortality at 20 ppm with Cooperia curticei (20 ppm, after 5 days) was determined as 90%.

Regarding `CC(C)Oc1ccc(-c2cnc(C(F)(F)CNC(=O)c3ccccc3C(F)(F)F)c(Cl)c2)cn1` [Example 17], in “logP”, the chromatographic logP is 4.15. Also, the mortality at 20 ppm in the data set with Haemonchus contortus turned out to be 90%; in the data set on Cooperia curticei, 100%.

`O=C(NCC(F)(F)c1ncc(-c2ccc(Cl)nc2Cl)cc1Cl)c1ccccc1C(F)(F)F` [Example 18]: the chromatographic logP in the data set “logP” is 3.68. For the same compound, the mortality at 20 ppm with Haemonchus contortus amounted to 80%; in the data set with Cooperia curticei it was 100%. In addition, in the data set with Meloidogyne incognita (20 ppm, after 14 days), the pest or weed control at 20 ppm worked out at 1%.

Compound `O=C(NCC(F)(F)c1ncc(-c2cccnc2)cc1Cl)c1ccccc1C(F)(F)F` [Example 19] returned a chromatographic logP in “physchem” of 2.27. Moreover, the inhibition at 10 µg/mL in data set [1] was not below 60%. In addition, the mortality at 20 ppm in the data set on Haemonchus contortus and in the data set with Cooperia curticei was 100% in each case.

As for `O=C(NCC(F)(F)c1ncc(-c2ccc(OCC(F)(F)F)nc2)cc1Cl)c1ccccc1C(F)(F)F` [Example 20], the chromatographic logP in the data set “logP” worked out at 3.94. The mortality at 20 ppm in the data set on Haemonchus contortus and in the data set on Cooperia curticei was 100% throughout. For the same compound, the pest or weed control at 20 ppm with Meloidogyne incognita (20 ppm, after 14 days) came to 90%.

As to `O=C(NCC(F)(F)c1ncc(-c2cnccc2Cl)cc1Cl)c1ccccc1C(F)(F)F` [Example 21], the chromatographic logP in the data set “logP” was determined as 2.88. Besides, the mortality at 20 ppm in the data set with Cooperia curticei came out at 80%.

Take `O=C(NCC(F)(F)c1ncc(-c2ccncc2)cc1Cl)c1ccccc1C(F)(F)F` [Example 22]: in the data set “logP”, the chromatographic logP came out at 2. Moreover, the mortality at 20 ppm came out at 90% in the data set on Haemonchus contortus and 100% in the data set with Cooperia curticei.

On to `O=C(NCC(F)(F)c1ncc(-c2ccnc(F)c2)cc1Cl)c1ccccc1C(F)(F)F` [Example 23], for which the chromatographic logP in “logP” was found to be 2.96. The mortality at 20 ppm with Haemonchus contortus and in the data set on Cooperia curticei was 100% each time. Moreover, the pest or weed control at 20 ppm with Meloidogyne incognita (20 ppm, after 14 days) was 1%.

Regarding `O=C(NCC(F)(F)c1ncc(-c2ccnc(Cl)c2)cc1Cl)c1ccccc1C(F)(F)F` [Example 24], the chromatographic logP in “logP” came out at 3.17. The mortality at 20 ppm in the data set on Haemonchus contortus and in the data set on Cooperia curticei was 100% throughout. Further, the pest or weed control at 20 ppm with Meloidogyne incognita (20 ppm, after 14 days) was 1%.

Turning to `O=C(NCC(F)(F)c1ncc(-n2cc(C(F)(F)F)cn2)cc1Cl)c1ccccc1C(F)(F)F` [Example 28], the inhibition at 10 µg/mL in data set [1] is not below 60%. The mortality at 20 ppm in the data set on Haemonchus contortus and with Cooperia curticei was 100% in each case. In the data set with Meloidogyne incognita, the pest or weed control at 20 ppm came out at 1%.

`O=C(NCC(F)(F)c1ncc(-c2ccc(F)cn2)cc1Cl)c1cccnc1C(F)(F)F` [Example 29] came in with a chromatographic logP in the data set “logP” of 2.57. Further, in the data set on Meloidogyne incognita (20 ppm, after 14 days), the pest or weed control at 20 ppm turned out to be 1%.

`O=C(NCC(F)(F)c1ncc(-c2ccc(F)cn2)cc1Cl)c1nccnc1C(F)(F)F` [Example 30] came in with a chromatographic logP in the data set “logP” of 2.75.

`CC(F)(CNC(=O)c1ccccc1C(F)(F)F)c1ncc(-c2ccc(F)nc2)cc1Cl` (centres unmarked) [Example 31] showed a chromatographic logP in “logP” of 3.94.

In the case of `CC(F)(CNC(=O)c1cccnc1C(F)(F)F)c1ncc(-c2ccc(F)nc2)cc1Cl` (centres unmarked) [Example 32], the chromatographic logP in the data set “logP” came to 2.66.

In turn, `CC(F)(CNC(=O)c1ccccc1C(F)(F)F)c1ncc(-c2ccc(Cl)nc2)cc1Cl` (centres unmarked) [Example 33] showed a chromatographic logP in the data set “logP” of 3.26.

Usually logP stands for the decadic logarithm of the partition coefficient of the neutral form, usually between octanol and water. Read a high logP as higher lipophilicity. In the data set “logP”, `CC(F)(CNC(=O)c1ccccc1C(F)(F)F)c1ncc(-c2ccc(C(F)(F)F)nc2)cc1Cl` (centres unmarked) [Example 35] showed a log partition coefficient (logP) of 3.55.

In turn, `CC(F)(CNC(=O)c1cccnc1C(F)(F)F)c1ncc(-c2ccc(C(F)(F)F)nc2)cc1Cl` (centres unmarked) [Example 36] gave a chromatographic logP in “logP” of 3.17.

In turn, `Cc1ccc(-c2cnc(C(C)(F)CNC(=O)c3ccccc3C(F)(F)F)c(Cl)c2)cn1` (centres unmarked) [Example 37] came in with a chromatographic logP in the data set “logP” of 3.79.

With `Cc1ccc(-c2cnc(C(C)(F)CNC(=O)c3cccnc3C(F)(F)F)c(Cl)c2)cn1` (centres unmarked) [Example 38], the chromatographic logP in the data set “logP” stood at 1.69.

`CC(F)(CNC(=O)c1ccccc1C(F)(F)F)c1ncc(-c2cncc(F)c2)cc1Cl` (centres unmarked) [Example 39]: the chromatographic logP in “logP” stood at 2.99.

`CC(F)(CNC(=O)c1cccnc1C(F)(F)F)c1ncc(-c2cncc(F)c2)cc1Cl` (centres unmarked) [Example 40] gave a chromatographic logP in the data set “logP” of 2.49.

Take `O=C(NCC(F)(F)c1ncc(-c2cc(F)c(F)cn2)cc1Cl)c1ccccc1C(F)(F)F` [Example 41]: the chromatographic logP in the data set “logP” came to 3.28.

With `CN(C)c1ccc(-c2cnc(C(F)(F)CNC(=O)c3ccccc3C(F)(F)F)c(Cl)c2)cn1` [Example 42], in the data set “logP”, the chromatographic logP worked out at 1.97.
